Laboratory results published in patent US9695155B2, “Herbicidal substituted pyrimidinyloxy benzene compounds” (E. I. DU PONT DE NEMOURS AND COMPANY, priority 2013, dated 2017).

Key:
[1] = test system: wild oat; test: Test D postemergence; format: in vivo, Avena fatua; settings: Avena fatua, post-emergence; for pest or weed control at 16 g/ha: 16 g ai/ha, scale 0-100, read-out: Plant response rating, Oat, Wild; for pest or weed control at 31 g/ha: 31 g ai/ha; for pest or weed control at 31 g/ha / pest or weed control at 62 g/ha / pest or weed control at 125 g/ha: scale 0 to 100 (0 no effect, 100 complete control), read-out: Plant response rating, Oat, Wild; for pest or weed control at 62 g/ha: 62 g ai/ha; for pest or weed control at 125 g/ha: 125 g ai/ha
From the text: (§1) Seeds of plant species selected from bluegrass (annual bluegrass, Poa annua), blackgrass (Alopecurus myosuroides), canarygrass (littleseed canarygrass, Phalaris minor), chickweed (common chickweed, Stellaria media), galium (catchweed bedstraw, Galium aparine), bromegrass, downy (downy bromegrass, Bromus tectorum), field poppy (Papaver rhoeas), field violet (Viola arvensis), green foxtail (Setaria viridis), deadnettle (henbit deadnettle, Lamium amplexicaule), Italian ryegrass (Lolium multiflorum), kochia (Kochia scoparia), lambsquarters (Chenopodium album), oilseed rape (Brassica napus), pigweed (Amaranthus retroflexus), chamomile (scentless chamomile, Matricaria inodora), Russian thistle (Salsola kali), speedwell (bird's-eye speedwell, Veronica persica), spring barley (Hordeum vulgare), spring wheat (Triticum aestivum), wild buckwheat (Polygonum convolvulus), wild mustard (Sinapis arvensis), wild oat (Avena fatua), wild radish (Raphanus raphanistrum), windgrass (Apera spica-venti), winter barley (Hordeum vulgare), and winter wheat (Triticum aestivum) were planted into a silt loam soil and treated preemergence with test chemicals formulated in a non-phytotoxic solvent mixture which included a surfactant.
(§2) At the same time, these species were planted in pots containing Redi-Earth® planting medium (Scotts Company, 14111 Scottslawn Road, Marysville, Ohio 43041) comprising spaghnum peat moss, vermiculite, wetting agent and starter nutrients and treated with postemergence applications of the test chemicals formulated in the same manner. Plants ranged in height from 2 to 18 cm (1- to 4-leaf stage). Treated plants and controls were maintained in a controlled growth environment for 7 to 21 days after which time all species were compared to controls and visually evaluated. Plant response ratings, summarized in Table D, are based on a scale of 0 to 100 where 0 is no effect and 100 is complete control. A dash (-) response means no test result.

[2] = test system: spring barley; test: Test D preemergence; format: in vivo, Hordeum vulgare; settings: Hordeum vulgare, pre-emergence
Procedure, shortened: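 Solvent/surfactant formulations are sprayed pre (silt loam) or post (1–4 leaf plants, 2–18 cm). Plants stay 7–21 days in controlled conditions before a visual 0–100 score is given.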

[3] = test system: pigweed; test: Test D preemergence; format: in vivo, Amaranthus retroflexus; settings: Amaranthus retroflexus, pre-emergence; for pest or weed control at 16 g/ha: 16 g ai/ha; for pest or weed control at 16 g/ha / pest or weed control at 31 g/ha: scale 0 (no effect) to 100 (complete control), read-out: Plant response rating, Pigweed; for pest or weed control at 31 g/ha: 31 g ai/ha; for pest or weed control at 62 g/ha: 62 g ai/ha; for pest or weed control at 62 g/ha / pest or weed control at 125 g/ha: scale 0-100, read-out: Plant response rating, Pigweed; for pest or weed control at 125 g/ha: 125 g ai/ha
From the text: as §1, §2

[4] = test system: field poppy; test: Test D preemergence; format: in vivo, Papaver rhoeas; settings: Papaver rhoeas, pre-emergence; for pest or weed control at 16 g/ha: 16 g ai/ha, scale 0 (no effect) to 100 (complete control), read-out: Plant response rating, Field Poppy; for pest or weed control at 31 g/ha: 31 g ai/ha; for pest or weed control at 31 g/ha / pest or weed control at 62 g/ha / pest or weed control at 125 g/ha: scale 0-100, read-out: Plant response rating, Field Poppy; for pest or weed control at 62 g/ha: 62 g ai/ha; for pest or weed control at 125 g/ha: 125 g ai/ha
From the text: as §1, §2

[5] = test system: blackgrass; test: Test D postemergence; format: in vivo, Alopecurus myosuroides; settings: Alopecurus myosuroides, post-emergence, Postemergence, scale 0 to 100 (0 no effect, 100 complete control), read-out: Plant response rating, Blackgrass; for pest or weed control at 62 g/ha: 62 g ai/ha; for pest or weed control at 16 g/ha: 16 g ai/ha; for pest or weed control at 31 g/ha: 31 g ai/ha
From the text: as §1, §2

[6] = test system: lambsquarters; test: Test D preemergence; format: in vivo, Chenopodium album; settings: Chenopodium album, pre-emergence; for pest or weed control at 16 g/ha: 16 g ai/ha, scale 0 (no effect) to 100 (complete control), read-out: Plant response rating, Lambsquarters; for pest or weed control at 31 g/ha: 31 g ai/ha; for pest or weed control at 31 g/ha / pest or weed control at 62 g/ha / pest or weed control at 125 g/ha: scale 0-100, read-out: Plant response rating, Lambsquarters; for pest or weed control at 62 g/ha: 62 g ai/ha; for pest or weed control at 125 g/ha: 125 g ai/ha
From the text: as §1, §2

[7] = test system: windgrass; test: Test D preemergence; format: in vivo, Apera spica-venti; settings: Apera spica-venti, pre-emergence; for pest or weed control at 16 g/ha: 16 g ai/ha; for pest or weed control at 16 g/ha / pest or weed control at 31 g/ha: scale 0 (no effect) to 100 (complete control), read-out: Plant response rating, Windgrass; for pest or weed control at 31 g/ha: 31 g ai/ha; for pest or weed control at 62 g/ha: 62 g ai/ha; for pest or weed control at 62 g/ha / pest or weed control at 125 g/ha: scale 0-100, read-out: Plant response rating, Windgrass; for pest or weed control at 125 g/ha: 125 g ai/ha
From the text: as §1, §2

[8] = test system: bromegrass, downy; test: Test D preemergence; format: in vivo, Bromus tectorum; settings: Bromus tectorum, pre-emergence; for pest or weed control at 16 g/ha: 16 g ai/ha, scale 0 (no effect) to 100 (complete control), read-out: Plant response rating, Bromegrass, Downy; for pest or weed control at 31 g/ha: 31 g ai/ha; for pest or weed control at 31 g/ha / pest or weed control at 62 g/ha / pest or weed control at 125 g/ha: scale 0-100, read-out: Plant response rating, Bromegrass, Downy; for pest or weed control at 62 g/ha: 62 g ai/ha; for pest or weed control at 125 g/ha: 125 g ai/ha
From the text: as §1, §2

[9] = test system: Italian ryegrass; test: Test D preemergence; format: in vivo, Lolium multiflorum; settings: Lolium multiflorum, pre-emergence; for pest or weed control at 16 g/ha: 16 g ai/ha; for pest or weed control at 16 g/ha / pest or weed control at 31 g/ha: scale 0 (no effect) to 100 (complete control), read-out: Plant response rating, Ryegrass, Italian; for pest or weed control at 31 g/ha: 31 g ai/ha; for pest or weed control at 62 g/ha: 62 g ai/ha; for pest or weed control at 62 g/ha / pest or weed control at 125 g/ha: scale 0-100, read-out: Plant response rating, Ryegrass, Italian; for pest or weed control at 125 g/ha: 125 g ai/ha
From the text: as §1, §2

[10] = test system: chamomile; test: Test D preemergence; format: in vivo, Matricaria inodora; settings: Tripleurospermum inodorum, pre-emergence
From the text: as §1, §2

Structure (SMILES) | pest or weed control at 16 g/ha [1] [%] | pest or weed control at 31 g/ha [1] [%] | pest or weed control at 62 g/ha [1] [%] | pest or weed control at 125 g/ha [1] [%] | pest or weed control at 16 g/ha [3] [%] | pest or weed control at 31 g/ha [3] [%] | pest or weed control at 62 g/ha [3] [%] | pest or weed control at 125 g/ha [3] [%] | pest or weed control at 16 g/ha [4] [%] | pest or weed control at 31 g/ha [4] [%] | pest or weed control at 62 g/ha [4] [%] | pest or weed control at 125 g/ha [4] [%] | pest or weed control at 62 g/ha [5] [%] | pest or weed control at 16 g/ha [5] [%] | pest or weed control at 31 g/ha [5] [%] | pest or weed control at 16 g/ha [6] [%] | pest or weed control at 31 g/ha [6] [%] | pest or weed control at 62 g/ha [6] [%] | pest or weed control at 125 g/ha [6] [%] | pest or weed control at 16 g/ha [7] [%] | further results
FC(F)(F)COc1cnn(-c2ccccc2Oc2ncc(Cl)cn2)c1 [Compound 138, 5-chloro-2-[2-[4-(2,2,2-trifluoroethoxy)-1H-pyrazol-1-yl]phenoxy]pyrimidine] | 5 | 0 | 5 | 10 | 0 | 25 | 100 | 100 | 100 | 100 | 100 | 100 | 10 | 5 | 5 | 45 | 10 | 60 | 100 | 0 | plant injury at 16 g/ha ([2]; 16 g ai/ha, scale 0 (no effect) to 100 (complete control), read-out: Plant response rating, Barley, Spring): 10%; plant injury at 31 g/ha ([2]; 31 g ai/ha, scale 0-100, read-out: Plant response rating, Barley, Spring): 10%; plant injury at 62 g/ha ([2]; 62 g ai/ha, scale 0-100, read-out: Plant response rating, Barley, Spring): 10%; plant injury at 125 g/ha ([2]; 125 g ai/ha, scale 0-100, read-out: Plant response rating, Barley, Spring): 15%; pest or weed control at 125 g/ha ([5]; 125 g ai/ha): 15%; pest or weed control at 31 g/ha [7]: 0%; pest or weed control at 62 g/ha [7]: 0%; pest or weed control at 125 g/ha [7]: 15%; pest or weed control at 16 g/ha [8]: 0%; pest or weed control at 31 g/ha [8]: 0%; pest or weed control at 62 g/ha [8]: 0%; pest or weed control at 125 g/ha [8]: 10%; pest or weed control at 16 g/ha [9]: 0%; pest or weed control at 31 g/ha [9]: 0%; pest or weed control at 62 g/ha [9]: 0%; pest or weed control at 125 g/ha [9]: 10%
Fc1cccc(Oc2ncc(Cl)cn2)c1-n1cc(Br)cn1 [Compound 178, 2-[2-(4-bromo-1H-pyrazol-1-yl)-3-fluorophenoxy]-5-chloropyrimidine] | 20 | 25 | 25 | 25 | 75 | 100 | 100 | 100 | 20 | 70 | 85 | 85 | 25 | 5 | 10 | 20 | 70 | 80 | 85 | 75 | pest or weed control at 16 g/ha ([10]; 16 g ai/ha, scale 0 (no effect) to 100 (complete control), read-out: Plant response rating, Chamomile): 0%; pest or weed control at 31 g/ha ([10]; 31 g ai/ha, scale 0-100, read-out: Plant response rating, Chamomile): 70%; pest or weed control at 62 g/ha ([10]; 62 g ai/ha, scale 0-100, read-out: Plant response rating, Chamomile): 55%; pest or weed control at 125 g/ha ([10]; 125 g ai/ha, scale 0-100, read-out: Plant response rating, Chamomile): 60%; pest or weed control at 31 g/ha [7]: 75%; pest or weed control at 62 g/ha [7]: 70%; pest or weed control at 125 g/ha [7]: 95%; pest or weed control at 16 g/ha [8]: 0%; pest or weed control at 31 g/ha [8]: 0%; pest or weed control at 62 g/ha [8]: 0%; pest or weed control at 125 g/ha [8]: 10%; pest or weed control at 16 g/ha [9]: 0%; pest or weed control at 31 g/ha [9]: 0%; pest or weed control at 62 g/ha [9]: 15%; pest or weed control at 125 g/ha [9]: 20%
